The target in assay [1] is T1, Human S6K1 (24-421) T412E protein (Homo sapiens, UniProt P23443, T412E).
T1 construct: Human S6K1 (24-421) T412E protein; made in house; host or cells: Sf21 insect cells
Nature of the assay: Determination of the IC50 for S6K1 (HTRF substrate phosphorylation test). Format: biochemical. The following applies: S6K1 activated by PDK1, ATP 30 μM. The protocol: Determination of the IC50 for S6K1
The inhibitory potential of the compounds for S6K1 is evaluated in an enzymatic test of phosphorylation of substrate in HTRF (Homogenous Time-Resolved Fluorescence) format. Human S6K1 (24-421) T412E protein is expressed in sf21 cells and purified by chromatography on a nickel chelate column. It is activated by PDK1.
The test comprises two steps, both performed at RT. The phosphorylation reaction takes place during the first step and the revelation step is performed during the second. […] The final concentrations of compounds thus obtained during the incubation period range from 10 μM to 0.17 nM and the concentration of enzyme is 2 nM. After incubation for 20 minutes, the reaction is stopped and the revelation initiated by addition of 30 μl of a mixture of streptavidin XL 665 Xlent, ref. 611SAXLB Cis bio international, and a europium cryptate-coupled anti-phospho-GSK3 antibody, ref. 64CUSKAZ Cis bio international, dissolved in the revelation buffer (HEPES/NaOH 166.7 mM, EDTA 221.7 mM, KF 667.7 mM, BSA 0.167%, pH 7.0). The reaction takes place in a black half-well plate ref. 3694 Costar.
A mixture of the reaction medium after each addition of reagent is obtained by agitation for a few minutes at 700-1000 rpm on a Heidolph Titramax 100 machine. The reading is taken on a TECAN Ultra Evolution machine after at least one night and up to 3 nights at 4° C. The reading settings are as follows: excitation wavelength 320 nm, emission wavelengths 620 and 665 nm, lag time 150 μs, integration time 500 μs.
For each point, the ΔF % is calculated as follows:
R(Ratio)=counts665 nm/counts620 nm
The IC50 values are calculated by means of the XLfit4 205 equation.
(Time-resolved FRET reads energy transfer from a long-lived donor to a nearby acceptor.)

The test system of assay [2] is MEF-IGF1 murine fibroblast cells. Briefly: IGF1-dependent proliferation of MEF-IGF1 cells via incorporation of [14C]-thymidine. The following applies: Mus musculus, Fibroblast; [14C]-thymidine incorporation, IGF1 stimulated, 72 hours; read-out: IC50 MEF-IGF. It is filed as cell-based. The source says:
a. Study of the IGF1-Dependent Proliferation of MEF-IGF1 Murine Fibroblast Cells Measured via Incorporation of [14C]-Thymidine
This test is based on the incorporation of [^14C]-thymidine into the DNA of the cells for the S phase of the cell cycle during cell division. The cell line used in this test is the MEF/3T3 Tet-Off Clone 18 line obtained by stable transfection of the human receptor IGF1R in murine MEF/3T3 Tet-Off fibroblasts. To measure the IGF1-dependent cell proliferation, the cells were deprived of serum and cultured for 3 days in the serum-free culture medium in the presence of the growth factor IGF1 which stimulates the proliferation of MEF-IGF1 cells.
Test of Incorporation of [^14C]-Thymidine into MEF-IGF1 Cells
On day 1, the cells were inoculated with 7500 cells per well in Cytostar 96-well microplates (Amersham (GE) RPNQ0162) in 200 μl of EMEM medium (EMEM, Biowhittaker, #BE12-662F) containing 10% foetal calf serum (FCS, TET-BD Biosciences Tet System Approved FBS US-Sourced, #8630-1) and 1% PSG (Penicillin-Streptomycin-Glutamine (PSG), Gibco #10378-016), and incubated at 37° C., 5% CO2, for 24 hours. On day 2, the cells were washed in the FCS-free EMEM culture medium containing 1% PSG, and incubated in 170 μl of this serum-free culture medium at 37° C., 5% CO2, for 24 hours. On day 3, the cells were incubated with 10 μl of IGF1 (2 μg/ml of final concentration; recombinant human IGF-1, R & D Systems, #291-G1), 10 μl (0.1 μCi) of [^14C]-Thymidine (NEN NEC-568) plus 10 μl of increasing concentrations of the test molecules, diluted in dimethyl sulfoxide (DMSO, Sigma D2650). The molecules were added in a volume of 10 μl of a 20-fold concentrated solution in a final volume of 200 μl, the final percentage of DMSO being 0.1%. The treated cells were incubated at 37° C., 5% CO2, for 72 hours. The incorporation of [^14C]-Thymidine was quantified in cpm units (counts per minute) by counting the radioactivity 72 hours after the start of the treatment, using a Micro-Beta radioactivity counter (Perkin-Elmer). The tests were performed in duplicate.
i) the mean±s.e.m. of each series of well replicates was calculated;
ii) the background noise is calculated by preparing cell-free, IGF1-free and untreated control wells; this control was performed in 4 replicates. The background noise was removed at each measurement;
iii) the maximum response is given by positive control wells containing cells in the presence of IGF1 but untreated; this control was performed in 4 replicates;
iv) the minimum response is given by negative control wells containing IGF1-free and untreated cells; this control was performed in 4 replicates;
The IC50 values were calculated by […] with the XLfit software (IDBS, UK) using formula 205.
(In general: Incorporation of labelled thymidine or its analogues reports DNA synthesis.)

A value given as a limit tells only on which side of the number the result lay.

T1 sequence (P23443 24-421 T412E): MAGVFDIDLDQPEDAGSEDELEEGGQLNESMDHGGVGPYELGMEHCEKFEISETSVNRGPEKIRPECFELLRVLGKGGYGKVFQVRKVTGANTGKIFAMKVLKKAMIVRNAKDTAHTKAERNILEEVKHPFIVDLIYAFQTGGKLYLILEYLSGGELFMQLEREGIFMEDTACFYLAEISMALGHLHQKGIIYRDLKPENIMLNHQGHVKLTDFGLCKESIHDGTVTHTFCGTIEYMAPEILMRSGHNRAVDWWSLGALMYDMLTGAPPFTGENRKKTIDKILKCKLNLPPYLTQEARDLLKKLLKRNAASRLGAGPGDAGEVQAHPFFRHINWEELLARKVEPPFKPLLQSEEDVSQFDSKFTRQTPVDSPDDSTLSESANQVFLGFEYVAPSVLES

A word on the IC50: it is the point on the concentration scale where inhibition reaches its midpoint. With `CN1CCCCC1C(OC(=O)Nc1ccc2[nH]ncc2c1)c1cc(F)cc(Cl)c1` (centres unmarked) [Ex 36, (3-Chloro-5-fluorophenyl)(1-methylpiperid-2-yl)methyl 1H-indazol-5-ylcarbamate], the figures for the IC50 in assay [1] and in assay [2] were 500 to 2000 nM and 770 nM, respectively.
Regarding `O=C(Nc1ccc2[nH]ncc2c1)O[C@H](c1ccc(Cl)c(Cl)c1)[C@H]1CCCCN1` [Ex 37, (R)-(3,4-Dichlorophenyl)[(2R)-piperid-2-yl]methyl 1H-indazol-5-ylcarbamate], the IC50 in assay [1] was 100 to 500 nM; in assay [2] it was 278 nM.
The like results for `CN1CCCCC1C(NC(=O)Nc1cc(F)c2[nH]ncc2c1)c1ccccc1` [Ex 21, 1-(7-Fluoro-1H-indazol-5-yl)-3-[(1-methylpiperid-2-yl)(phenyl)methyl]urea((S,2S),(R,2R))] were, in that order, 500 to 2000 nM and 2820 nM.
For the compound `O=C(Nc1ccc2[nH]ncc2c1)O[C@@H](c1ccc(Cl)c(Cl)c1)[C@@H]1CCCCN1` [Ex 38b, (S)-(3,4-Dichlorophenyl)[(2S)-piperid-2-yl]methyl 1H-indazol-5-ylcarbamate], the IC50 is 100 to 500 nM in assay [1] and 963 nM in assay [2].
The like results for `CN1CCCCC1C(NC(=O)Nc1ccc2[nH]ncc2c1)c1cc(F)cc(Cl)c1` (centres unmarked) [Ex 11, 1-[(3-Chloro-5-fluorophenyl)(1-methylpiperid-2-yl)methyl]-3-(1H-indazol-5-yl)urea] were, in that order, 500 to 2000 nM and 2920 nM.
`O=C(Nc1ccc2[nH]ncc2c1)OC(c1cc(Cl)cc(Cl)c1)C1CCCCN1` [Ex 34, (3,5-Dichlorophenyl)[piperid-2-yl]methyl 1H-indazol-5-ylcarbamate((S,2S),(R,2R))]: the IC50 is 500 to 2000 nM in assay [1] and 600 nM in assay [2].
In the same order, the values of `CN1CCCCC1C(NC(=O)Nc1ccc2[nH]nc(-c3ccncc3)c2c1)c1ccccc1` [Ex 13, 1-[(1-Methylpiperid-2-yl)(phenyl)methyl]-3-(3-pyrid-4-yl-1H-indazol-5-yl)urea((S,2S),(R,2R))] are 500 to 2000 nM and 5120 nM.
The like results for `O=C(Nc1ccc2[nH]ncc2c1)O[C@@H](c1cc(F)cc(Cl)c1)[C@@H]1CCCCN1` [Ex 35, (S)-(3-Chloro-5-fluorophenyl)[(2S)-piperid-2-yl]methyl 1H-indazol-5-ylcarbamate] were, in that order, 100 to 500 nM and 560 nM.
For `O=C(Nc1ccc2[nH]ncc2c1)NC(c1cc(F)cc(Cl)c1)C1CCCCN1` (centres unmarked) [Ex 5, 1-[(3-Chloro-5-fluorophenyl)(piperid-2-yl)methyl]-3-(1H-indazol-5-yl)urea], the IC50 in assay [1] is 100 to 500 nM; in assay [2], < 100 nM.
In the same order, the values of `O=C(Nc1ccc2[nH]ncc2c1)N[C@@H](c1ccc(Cl)c(Cl)c1)[C@@H]1CCCCN1` [Ex 4, 1-{(S)-(3,4-Dichlorophenyl)[(2S)-piperid-2-yl]methyl}-3-(1H-indazol-5-yl)urea] are 100 to 500 nM and 500 nM.
In the same order, the values of `CN1CCCCC1C(NC(=O)Nc1ccc2[nH]nc(C#Cc3cccnc3)c2c1)c1ccccc1` [Ex 25, 1-[(1-Methylpiperid-2-yl)(phenyl)methyl]-3-[3-(pyrid-3-ylethynyl)-1H-indazol-5-yl]urea((S,2S),(R,2R))] are 100 to 500 nM and 366 nM.
`O=C(Nc1ccc2[nH]ncc2c1)O[C@@H](c1cccc(Br)c1)[C@@H]1CCCCN1` [Ex 46]: the IC50 in assay [1] was 100 to 500 nM; in assay [2] it was 546 nM.
Turning to `Cc1n[nH]c2ccc(NC(=O)NC(c3ccccc3)C3CCCCN3C)cc12` [Ex 18, 3-Methyl-5-({[(1-methylpiperid-2-yl)(phenyl)methyl]carbamoyl}amino)-1H-indazole ((S,2S),(R,2R))], the values for the IC50 in assay [1] and in assay [2] were 500 to 2000 nM and 290 nM, respectively.
The like results for `CN1CCCCC1C(NC(=O)Nc1ccc2[nH]nc(C#Cc3ccc(F)cc3)c2c1)c1ccccc1` [Ex 24, 1-{3-[(4-Fluorophenyl)ethynyl]-1H-indazol-5-yl}-3-[(1-methylpiperid-2-yl)(phenyl)methyl]urea((S,2S),(R,2R))] were, in that order, 100 to 500 nM and 860 nM.
As to `S=C(Nc1ccc2[nH]ncc2c1)N[C@@H](c1ccc(Cl)c(Cl)c1)[C@@H]1CCCCN1` [Ex 31, 1-{(S)-(3,4-Dichlorophenyl)[(2S)-piperid-2-yl]methyl}-3-(1H-indazol-5-yl)thiourea], the figures for the IC50 in assay [1] and in assay [2] were 100 to 500 nM and 1270 nM, respectively.
In the same order, the values of `O=C(Nc1ccc2[nH]ncc2c1)N[C@@H](c1cc(F)cc(Cl)c1)[C@@H]1CCCCN1` [Ex 3, 1-{(S)-(3-Chloro-5-fluorophenyl)[(2S)-piperid-2-yl]methyl}-3-(1H-indazol-5-yl)urea] are 100 to 500 nM and 790 nM.

The values are drawn from patent US20100298377A1, “NOVEL SUBSTITUTED INDAZOLES, THE PREPARATION THEREOF AND USE OF SAME IN THERAPEUTICS” (SANOFI-AVENTIS, priority 2007, published 2010).
